{"source": "patent US20080220056A1", "about": "“Treatment for liver disease” (UNIVERSITY OF SOUTHAMPTON, priority 2002, published 2008)", "key": {"[1]": {"system": "mitochondrial permeability transition in rat hepatic stellate cells", "experiment": "Confocal microscopy of calcein/TMRM (mitochondrial permeability transition)", "assay_type": "cell-based", "conditions": "1.5 μmol/L gliotoxin", "method": "(§1) Intracellular calcium concentrations were examined by preloading activated hepatic stellate cells seeded onto 35-mm diameter dishes with 2.5 μmol/L Fluo-3AM for two hours. Mitochondrial integrity was determined by coloading cells with […] TMRM and 1 μmol/M calcein-AM for three hours. After loading, the culture medium was removed and the cells were washed extensively with confocal buffer (145 mmol/L NaCl, 5 mml/L KCl, 1 mmol/L MgSO4, 1 mmol/L NaH2PO4, 10 mmol/L HEPES, 25 mmol/L glucose, 1 mmol/L CaCl2 and 2 mg/mL bovine serum albumin, pH 7.4) and incubated at 37° C. in 2 mL confocal buffer containing 1.5 μmol/L gliotoxin or DMSO vehicle control.\nFluorescence images were collected at 1 μm intervals using an Olympus BX50WI microscope fitted with the Biorad microradiance confocal scanning system.\n(§2) Fluo-3 and calcein fluorescence were excited at 488 nm and collected at 515-530 nm using a band width filter. TMRM was excited at 543 nm and collected at wavelengths greater than 570 nm.\nCulture activated rat hepatic cells (14 day) were loaded with calcein (green fluorescence) and TMRM (red fluorescence) and then treated with either 0.05% (vol/vol) DMSO vehicle or alternatively 1.5 μmol/L gliotoxin. Green fluorescence and red fluorescence were imaged at regular time points as outlined in Materials and Methods and the results obtained were typical for at least three separate experiments."}, "[2]": {"system": "human hepatic stellate cells", "experiment": "DNA cleavage in human hepatic stellate cells (ladder, propidium iodide, TUNEL)", "assay_type": "cell-based", "conditions": "human HSC, gliotoxin", "method": "Hepatic stellate cells cultured in 35-mm diameter dishes (Greiner) were harvested, pelleted by centrifugation and DNA fragmentation determined as outlined elsewhere (Elsharkawy et al., Hepatology (1999) 30:761-769). Propidium Iodide Flow-Activated Cell Sorting Analysis Detached cells were pelleted by centrifugation, washed in PBS, and resuspended in HYPO buffer (0.1% wt/vol) Na3Citrate and 0.1% (wt/vol) Triton™ X-100 containing […] propidium iodide and incubated for 1 hour. The cells were then analyzed by fluorescence-activated cell sorter (FACS) with a Becton Dickinson (San Jose, Calif.) FACScan instrument using a 488 nm excitation wavelength with a band pass filter set at 530 nm. Attached cells were scraped in HYPO buffer after washing cells with PBS.\nRat and human hepatic stellate cells and rat liver tissue were fixed in 4% paraformaldehyde in PBS or 10% formalin in PBS, respectively, before being stained with Giemsa. DNA fragmentation was examined by labeling of 3′-OH DNA ends by the enzymatic addition of digoxygenin-labeled deoxyuridine triphosphate (dUTP) using terminal deoxynucleotidyl transferase using a kit from Boehringer essentially as described by the manufacturer. Rat liver tissue sections were pretreated with diethyl pyrocarbonate as described previously (Stahelin et al., J. Clin. Pathol. Mol. Pathol. (1998) 51:204-208) to reduce nonspecific reaction."}, "[3]": {"system": "intracellular Ca2+ in rat hepatic stellate cells", "experiment": "Confocal microscopy of fluo-3 (intracellular calcium)", "assay_type": "cell-based", "conditions": "1.5 μmol/L gliotoxin", "method": "as §1, §2\nMPT results in futile Ca^2+ cycling by mitochondria, which enhances the likelihood of cell death (Crompton et al., Biochem. J. (1999) 341: 233-249). The role of the MPT in the late events of gliotoxin apoptosis was also therefore assessed by measuring intracellular calcium levels. Culture-activated (14-day) rat hepatic stellate cells in six-well plates were loaded with fluo-3 and fluorescence imaged as outlined in the Materials and methods section after treatment with DMSO control or 1.5 μmol/L gliotoxin."}, "[4]": {"system": "carbon tetrachloride model of liver fibrosis", "experiment": "Carbon tetrachloride (in vivo) model of liver fibrosis, weekly gliotoxin injection", "design": "species or system rat", "conditions": "for Liver α-sma staining (number of α-sma-positive cells) / Serum ALP / Serum ALT / Sirius red staining (mid intralobular μm): weekly gliotoxin injection 3 mg/kg i.p.", "method": "Rats were randomly sorted into groups and treated with 2 mL CCl4:olive oil (1:1 [vol/vol])/kg body weight by intraperitoneal injection twice weekly to cause liver fibrosis. Control animals were treated with 1 mL olive oil/kg body weight by intraperitoneal injection. Gliotoxin was administered at up to 3 mg gliotoxin/kg body weight by intraperitoneal injection. Gliotoxin was dissolved in dimethyl sulfoxide (DMSO) as a vehicle, and control animals received DMSO alone.\nAt the required time, rats were killed by carbon dioxide asphyxiation and tissues removed for analysis. Serum was prepared and analyzed for alkaline phosphatase and alanine aminotransferase activities essentially as previously described. (Wright et al., Biochem. Pharmacol., (1992) 43:237-243) Histochemical staining of formalin-fixed liver sections with H&E, Sirius red, and immunochemical staining for α-smooth muscle actin were performed essentially as previously described (Iredale et al.,—1998—supra)"}, "[5]": {"system": "rat hepatic stellate cells", "experiment": "Hepatic stellate cell proliferation (tritiated thymidine)", "assay_type": "cell-based", "conditions": "TIMP-1 1-100 ng/ml, 24 hour incubation, versus BSA carrier", "method": "Hepatic stellate cells were cultured in 24-well tissue culture plates. These were washed with serum-free medium for 24 h, and then the cells were exposed to TIMP-1 at a concentration range of 1-100 ng/ml for 24 h and then pulsed with tritiated thymidine (0.5 μCi/well) for 18 hours before scintillation counting as previously described (Boulton et al., Clin. Sci., (1995) 88:119-130)."}}, "note": "Marks after values point to notes of the source that are not given here.", "data": [{"compound": "CN1C(=O)[C@]23CC4=CC=C[C@H](O)[C@H]4N2C(=O)[C@@]1(CO)SS3", "note": "[gliotoxin]", "values": [{"measurement": "TMRM fluorescence (mitochondrial permeability)", "setting": "[1]", "result": "loss of TMRM fluorescence at four hours"}, {"measurement": "DNA cleavage by propidium iodide or TUNEL staining", "setting": "[2]", "result": "DNA cleavage was detected"}, {"measurement": "cleavage of DNA to oligonucleosomal-length fragments", "setting": "[2]", "result": "did not cleave their DNA to oligonucleosomal-length fragments"}, {"measurement": "intracellular Ca2+ levels", "setting": "[3]", "result": "do not rise until two hours of incubation"}, {"measurement": "liver serum enzymes caused by carbon tetrachloride treatment", "setting": "[4]; gliotoxin administered during CCl4 treatment", "result": "significantly reduces the levels of liver serum enzymes"}, {"measurement": "number of activated hepatic stellate cells and thickness of fibrotic bands", "setting": "[4]; gliotoxin administered during the liver insult (CCl4)", "result": "significantly reduces the number of activated hepatic stellate cells and thickness of fibrotic bands"}, {"measurement": "hepatotoxicity of long term administration", "setting": "[4]; weekly gliotoxin", "result": "no evidence that long term administration of gliotoxin is itself hepatotoxic"}, {"measurement": "Liver α-sma staining (number of α-sma-positive cells)", "setting": "[4]; CCl4 twice weekly 4 weeks", "result": "6 ± 1.2"}, {"measurement": "Serum ALP", "setting": "[4]; CCl4 twice weekly 4 weeks", "result": "429 ± 25^a μ/mL"}, {"measurement": "Serum ALT", "setting": "[4]; CCl4 twice weekly 4 weeks", "result": "300 ± 111^b μ/mL"}, {"measurement": "Sirius red staining (mid intralobular μm)", "setting": "[4]; CCl4 twice weekly 4 weeks", "result": "4.6 ± 3.1^£ μm"}, {"measurement": "Liver α-sma staining (number of α-sma-positive cells)", "setting": "[4]; no CCl4 (olive oil 4 weeks)", "result": "1.4 ± 1.38"}, {"measurement": "Serum ALP", "setting": "[4]; no CCl4 (olive oil 4 weeks)", "result": "249 ± 26", "unit": "μ/mL"}, {"measurement": "Serum ALT", "setting": "[4]; no CCl4 (olive oil 4 weeks)", "result": "89 ± 58", "unit": "μ/mL"}, {"measurement": "Sirius red staining (mid intralobular μm)", "setting": "[4]; no CCl4 (olive oil 4 weeks)", "result": 0, "unit": "μm"}]}, {"compound": "TIMP-1: recombinant tissue inhibitor of matrix metalloproteases 1 (Biogenesis)", "values": [{"measurement": "proliferation of rat hepatic stellate cells", "setting": "[5]", "result": "had no effect on proliferation"}]}]}
